According to PubChem BioAssay AID256 (DTP/NCI, 2004):
Several values for one entry are separate records, joined by “and”; a condition that tells them apart may be missing. Equal entries are not always repeated. Inconclusive results and toxic doses are left out. Rule for the calls: active = survival T/C of 150% or more; inactive = T/C below 125% in these data.

Tested on: CD2F1 mice, L1210 leukemia ip, survival T/C
Assay: NCI In Vivo Anticancer Drug Screen. Data for tumor model L1210 Leukemia (intraperitoneal) in CD2F1 (CDF1) mice
Details: endpoint: mean survival time, higher = longer survival
In short: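 Vehicle-treated tumor-bearing mice served as controls (C) for compound-treated mice (T). Reported figure is T divided by C.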

[1] = dose: 100.0 mg/kg/injection, schedule: Q01DX001 (ip), vehicle: saline with Tween-80
[2] = dose: 200.0 mg/kg/injection, schedule: Q01DX001 (ip), vehicle: saline with Tween-80
[3] = dose: 400.0 mg/kg/injection, schedule: Q01DX001 (ip), vehicle: saline with Tween-80
[4] = dose: 50.0 mg/kg/injection, schedule: Q01DX009 (ip), vehicle: saline with Tween-80
[5] = dose: 100.0 mg/kg/injection, schedule: Q01DX009 (ip), vehicle: saline with Tween-80
[6] = dose: 200.0 mg/kg/injection, schedule: Q01DX009 (ip), vehicle: saline with Tween-80
[7] = dose: 400.0 mg/kg/injection, schedule: Q01DX009 (ip), vehicle: saline with Tween-80
[8] = dose: 100.0 mg/kg/injection, schedule: Q04DX003 (ip), vehicle: saline with Tween-80
[9] = dose: 200.0 mg/kg/injection, schedule: Q04DX003 (ip), vehicle: saline with Tween-80
[10] = dose: 400.0 mg/kg/injection, schedule: Q04DX003 (ip), vehicle: saline with Tween-80

Measured: T/C

CC(=O)C1=C2c3ccccc3C(=O)c3c(Br)cc(S(=O)(=O)O)c(c32)NC1
inactive: [1] 94 % of control | [2] 94 % of control | [3] 90 % of control

O=P1(N(CCCl)CCCl)OC(c2ccccc2)=CCN1c1ccccc1 (stereo not drawn)
inactive: dose: 31.25 mg/kg/injection, schedule: Q01DX001 (ip), vehicle: saline 103 % of control | dose: 62.5 mg/kg/injection, schedule: Q01DX001 (ip), vehicle: saline 97 % of control | dose: 125.0 mg/kg/injection, schedule: Q01DX001 (ip), vehicle: saline 100 % of control | dose: 250.0 mg/kg/injection, schedule: Q01DX001 (ip), vehicle: saline 100 % of control | dose: 500.0 mg/kg/injection, schedule: Q01DX001 (ip), vehicle: saline 103 % of control

CCCCCCCCCCCCCOc1ccc2ccccc2c1
inactive: dose: 100.0 mg/kg/injection, schedule: Q01DX001 (ip), vehicle: Klucel (hydroxypropylcellulose) (HPC) 107 % of control | dose: 200.0 mg/kg/injection, schedule: Q01DX001 (ip), vehicle: Klucel (hydroxypropylcellulose) (HPC) 96 % of control | dose: 400.0 mg/kg/injection, schedule: Q01DX001 (ip), vehicle: Klucel (hydroxypropylcellulose) (HPC) 87 % of control

CCOC/C=C\C1CCCC1
inactive: [4] 94 % of control | [5] 100 % of control | [6] 102 % of control

CC(C)(C)C(=O)CC(O)(C(F)(F)Cl)C(F)(F)Cl
inactive: [4] 111 % of control | [5] 116 % of control and 108 % of control | [6] 92 % of control and 95 % of control | [7] 113 % of control

COC(=O)c1csc(CCN)n1
inactive: dose: 100.0 mg/kg/injection, schedule: Q01DX009 (ip), vehicle: saline 102 % of control | dose: 200.0 mg/kg/injection, schedule: Q01DX009 (ip), vehicle: saline 95 % of control | dose: 400.0 mg/kg/injection, schedule: Q01DX009 (ip), vehicle: saline 92 % of control

O=C(O)/C=C\c1cccc([N+](=O)[O-])c1
inactive: [5] 94 % of control | [6] 103 % of control | [7] 88 % of control

NC(C(=O)O)C(O)c1ccc2c(c1)OCO2 (stereo not drawn)
inactive: [8] 98 % of control | [9] 92 % of control | [10] 95 % of control

COC(=O)C(C(=O)OC)c1ccc(C)c(OC)c1
inactive: [5] 97 % of control | [8] 104 % of control | [6] 98 % of control | [9] 104 % of control | [7] 97 % of control | [10] 102 % of control

CCc1ncc(CO)n1Cc1ccccc1
inactive: [5] 100 % of control

CC1(CNC(=O)C(=O)NCC2(C)CO2)CO1 (stereo not drawn)
inactive: dose: 22.0 mg/kg/injection, schedule: Q01DX Z (ip), vehicle: saline 122 % of control | dose: 150.0 mg/kg/injection, schedule: Q01DX010 (ip), vehicle: saline 113 % of control | dose: 225.0 mg/kg/injection, schedule: Q01DX010 (ip), vehicle: saline 106 % of control

OCC1OC(c2ccccc2)OC(CO)C(O)C1O (stereo not drawn)
inactive: [4] 96 % of control | [5] 98 % of control | [6] 94 % of control

COc1ccc(OC)c(C)c1
inactive: [5] 105 % of control | [6] 107 % of control | [7] 104 % of control

c1ccc2c(CN3CC3)c[nH]c2c1
inactive: dose: 22.0 mg/kg/injection, schedule: Q01DX009 (ip), vehicle: other 101 % of control | dose: 25.0 mg/kg/injection, schedule: Q01DX009 (ip), vehicle: other 109 % of control | dose: 33.0 mg/kg/injection, schedule: Q01DX009 (ip), vehicle: other 103 % of control | [5] 114 % of control | [6] 112 % of control

NC(=S)N/N=C\c1ncccc1O
inactive: dose: 25.0 mg/kg/injection, schedule: Q03HX024 (ip), vehicle: saline 120 % of control

CCCCCCCCCCCC(=O)c1ccccc1
inactive: [5] 102 % of control | dose: 100.0 mg/kg/injection, schedule: Q04DX003 (ip), vehicle: other 95 % of control | [6] 102 % of control | dose: 200.0 mg/kg/injection, schedule: Q04DX003 (ip), vehicle: other 97 % of control | [7] 98 % of control | dose: 400.0 mg/kg/injection, schedule: Q04DX003 (ip), vehicle: other 92 % of control

O=S1(=O)C=CCCC=C1
inactive: dose: 50.0 mg/kg/injection, schedule: Q01DX009 (ip), vehicle: Klucel (hydroxypropylcellulose) (HPC) 93 % of control | dose: 100.0 mg/kg/injection, schedule: Q01DX009 (ip), vehicle: Klucel (hydroxypropylcellulose) (HPC) 93 % of control

CSc1ncnc2c1c(C#N)cn2C1OC(CO)C(O)C1O (stereo not drawn)
inactive: dose: 32.0 mg/kg/injection, schedule: Q01DX009 (ip), vehicle: saline 124 % of control | dose: 53.0 mg/kg/injection, schedule: Q01DX009 (ip), vehicle: saline 87 % of control

C[NH-].C[NH-].[Br][Pt][Br].[CH3-].[CH3-]
inactive: dose: 1.56 mg/kg/injection, schedule: Q04DX003 (ip), vehicle: saline with Tween-80 97 % of control | dose: 3.13 mg/kg/injection, schedule: Q04DX003 (ip), vehicle: saline with Tween-80 97 % of control | dose: 6.25 mg/kg/injection, schedule: Q04DX003 (ip), vehicle: saline with Tween-80 104 % of control | dose: 12.5 mg/kg/injection, schedule: Q04DX003 (ip), vehicle: saline with Tween-80 93 % of control | dose: 25.0 mg/kg/injection, schedule: Q04DX003 (ip), vehicle: saline with Tween-80 89 % of control and 93 % of control | dose: 50.0 mg/kg/injection, schedule: Q04DX003 (ip), vehicle: saline with Tween-80 102 % of control | [8] 100 % of control | [9] 98 % of control | [10] 94 % of control

C=CCC(Cc1ccccc1)C1=NC(C)(C)CC(C)O1 (stereo not drawn)
inactive: [4] 101 % of control | [1] 97 % of control | [5] 97 % of control | [2] 103 % of control | [6] 94 % of control

CC(=O)C1CCC2C3CC=C4CC(n5cc(F)c(=O)[nH]c5=O)CCC4(C)C3CCC12C (stereo not drawn)
inactive: dose: 12.5 mg/kg/injection, schedule: Q04DX003 (ip), vehicle: Klucel (hydroxypropylcellulose) (HPC) 97 % of control | dose: 25.0 mg/kg/injection, schedule: Q04DX003 (ip), vehicle: Klucel (hydroxypropylcellulose) (HPC) 101 % of control | dose: 50.0 mg/kg/injection, schedule: Q04DX003 (ip), vehicle: Klucel (hydroxypropylcellulose) (HPC) 97 % of control | dose: 100.0 mg/kg/injection, schedule: Q04DX003 (ip), vehicle: Klucel (hydroxypropylcellulose) (HPC) 98 % of control | dose: 200.0 mg/kg/injection, schedule: Q04DX003 (ip), vehicle: Klucel (hydroxypropylcellulose) (HPC) 91 % of control

CN(N)c1nc2c(=O)[nH]c(N)nc2n1C1OC(CO)C(O)C1O (stereo not drawn)
inactive: dose: 1.56 mg/kg/injection, schedule: Q01DX005 (ip), vehicle: water 101 % of control | dose: 3.12 mg/kg/injection, schedule: Q01DX005 (ip), vehicle: water 101 % of control | dose: 6.25 mg/kg/injection, schedule: Q01DX005 (ip), vehicle: water 101 % of control | dose: 12.5 mg/kg/injection, schedule: Q01DX005 (ip), vehicle: water 98 % of control | dose: 25.0 mg/kg/injection, schedule: Q01DX005 (ip), vehicle: water 103 % of control

O=C(c1cc2c3ccccc3ccc2c2ccccc12)C(Br)Br
inactive: dose: 25.0 mg/kg/injection, schedule: Q01DX009 (ip), vehicle: saline with Tween-80 106 % of control | [4] 103 % of control | [5] 100 % of control | [8] 93 % of control

[Cl][Pt][Cl].[NH-]CC[NH-].[NH-]CC[NH-]
inactive: dose: 12.5 mg/kg/injection, schedule: Q04DX003 (ip), vehicle: water 92 % of control and 100 % of control and 95 % of control | dose: 25.0 mg/kg/injection, schedule: Q04DX003 (ip), vehicle: water 88 % of control and 89 % of control and 100 % of control | dose: 50.0 mg/kg/injection, schedule: Q04DX003 (ip), vehicle: water 95 % of control and 97 % of control | dose: 100.0 mg/kg/injection, schedule: Q04DX003 (ip), vehicle: water 90 % of control and 91 % of control and 95 % of control | dose: 200.0 mg/kg/injection, schedule: Q04DX003 (ip), vehicle: water 95 % of control and 93 % of control

O=C(O)C1CCC(=O)N1C(=O)OCc1ccccc1 (stereo not drawn)
inactive: [5] 95 % of control | [6] 92 % of control | [7] 90 % of control

C=CCNC(=S)N/N=C\c1cc(OC)c(OC)c(OC)c1
inactive: [5] 93 % of control | [6] 97 % of control | [7] 106 % of control

O=C(O)c1ccccn1
inactive: dose: 50.0 mg/kg/injection, schedule: Q04HX027 (ip), vehicle: saline 102 % of control | dose: 100.0 mg/kg/injection, schedule: Q04HX027 (ip), vehicle: saline 93 % of control

CCc1ccc2ccccc2c1[N+](=O)[O-]
inactive: [1] 105 % of control | [2] 94 % of control | [3] 98 % of control
